Test results reported in US5580775A, “High affinity, brain-specific nucleic acids encoding a L-proline transporter, and vectors, and host cells comprising the same” (Emory University, priority 1992, dated 1996).
Like-named read-outs stand apart in the source and are kept apart here. Peptide text beside a SMILES is read from it.

B1: high affinity, Na^+ -dependent rat brain L-proline transporter (Rattus norvegicus) (protein)
chain: MKKLQEAHLRKPVTPDLLMTPSDQGDVDLDVDFAADRGNWTGKLDFLLSCIGYCVGLGNVWRFPYRAYTNGGGAFLVPYFLMLAICGIPLFFLELSLGQFSSLGPLAVWKISPLFKGAGAAMLLIVGLVAIYYNMIIAYVLFYLFASLTSNLPWEHCGNWWNTERCLEHRGPKDGNGALPLNLSSTVSPSEEYWSRYVLHIQGSQGIGRPGEIRWNLCLCLLLAWVIVFLCILKGVKSSGKVVYFTATFPYLILLMLLVRGVTLPGAWKGIQFYLTPQFHHLLSSKVWIEAALQIFYSLGVGFGGLLTFASYNTFHQNIYRDTFIVTLGNAITSILAGFAIFSVLGYMSQELGVPVDQVAKAGPGLAFVIYPQAMTMLPLSPFWSFLFFFMLLTLGLDSQFAFLETIVTAVTDEFPYYLRPKKAVFSGLICVAMYLMGLILTTDGGMYWLVLLDDYSASFGLMVVVITTCLAVTRVYGIQRFCRDIHMMLGFKPGLYFRACWLFLSPATLLALLVYSIVKYQPSEYGSYRFPAWAELLGILMGLLSCLMIPAGMLVAVLREEGSLWERLQQASRPAIDWGPSLEENRTGMYVATLAGSQSPKPLMVHMRKYGGITSFENTAIEVDREIAEEEEESMM

Assays:
[1] = biological target: T1, rat brain L-proline transporter (Rattus norvegicus, UniProt P28573); assay: cell-based
T1 sequence (P28573 1-637): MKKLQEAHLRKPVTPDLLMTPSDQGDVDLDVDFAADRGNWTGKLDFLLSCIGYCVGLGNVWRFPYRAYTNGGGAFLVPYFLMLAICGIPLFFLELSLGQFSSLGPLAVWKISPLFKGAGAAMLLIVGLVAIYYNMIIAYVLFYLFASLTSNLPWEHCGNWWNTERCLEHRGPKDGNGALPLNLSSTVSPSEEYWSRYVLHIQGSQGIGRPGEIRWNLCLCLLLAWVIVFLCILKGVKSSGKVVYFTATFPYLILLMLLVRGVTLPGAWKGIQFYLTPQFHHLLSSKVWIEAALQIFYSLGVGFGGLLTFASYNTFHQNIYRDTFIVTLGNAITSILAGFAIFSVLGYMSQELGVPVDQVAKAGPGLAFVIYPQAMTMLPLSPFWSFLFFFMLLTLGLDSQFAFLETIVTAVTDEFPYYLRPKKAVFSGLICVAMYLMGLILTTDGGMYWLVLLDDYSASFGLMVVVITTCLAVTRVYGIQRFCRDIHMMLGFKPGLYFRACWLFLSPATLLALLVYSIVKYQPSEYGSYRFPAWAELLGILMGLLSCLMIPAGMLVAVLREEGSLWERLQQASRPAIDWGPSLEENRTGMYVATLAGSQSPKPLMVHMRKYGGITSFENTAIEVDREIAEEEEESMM

[2] = biological target: T1, rat brain L-proline transporter; assay: Transport of L-[3H]glutamate or D-[3H]aspartate in HeLa fibroblasts expressing the transporter cDNA; format: cell-based; details: transient expression in HeLa fibroblasts
[3] = test system: rat brain synaptosomes; details: cited from earlier work
[4] = test system: HeLa cells
[5] = biological target: T2, high affinity, Na^+ -dependent rat brain L-proline transporter (Rattus norvegicus, UniProt P28573); assay: L-proline uptake (saturation kinetics, Na+ dependence) in HeLa cells transfected with pPROT
T2 sequence (P28573 1-637): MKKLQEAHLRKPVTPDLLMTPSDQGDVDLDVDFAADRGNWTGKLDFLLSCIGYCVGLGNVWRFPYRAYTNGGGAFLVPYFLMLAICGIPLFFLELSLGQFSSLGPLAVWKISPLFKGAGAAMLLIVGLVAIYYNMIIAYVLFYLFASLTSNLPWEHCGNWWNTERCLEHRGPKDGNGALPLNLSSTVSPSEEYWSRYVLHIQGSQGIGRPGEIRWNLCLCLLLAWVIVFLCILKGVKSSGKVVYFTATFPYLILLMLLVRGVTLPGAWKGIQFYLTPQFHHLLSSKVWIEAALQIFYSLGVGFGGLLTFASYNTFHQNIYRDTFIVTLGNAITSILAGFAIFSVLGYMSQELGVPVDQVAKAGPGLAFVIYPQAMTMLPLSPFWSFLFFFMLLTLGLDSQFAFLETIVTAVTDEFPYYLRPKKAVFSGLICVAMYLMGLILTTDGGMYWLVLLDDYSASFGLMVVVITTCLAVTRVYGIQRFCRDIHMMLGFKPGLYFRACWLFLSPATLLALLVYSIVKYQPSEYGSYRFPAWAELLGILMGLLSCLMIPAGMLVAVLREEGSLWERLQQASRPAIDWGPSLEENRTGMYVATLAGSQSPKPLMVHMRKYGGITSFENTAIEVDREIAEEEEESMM

[6] = substrate: O=C(O)[C@@H]1CCCN1; assay: cells, lysate or membranes; details: other: 20 min incubation, 50 nM L-[3H]proline plus unlabeled L-proline, HeLa cells transfected with pPROT
[7] = read-out: Ki (inhibition of proline uptake)
[8] = read-out: Ki values in excess of 100 μM (inhibition of proline uptake)
[9] = Ki (inhibition of proline uptake)

Row | Molecule | Ki [1, 8] | also measured
1 | CNCC(=O)O [Sarcosine] | – | Ki [1, 7]: 30 µM
2 | N[C@H](C(=O)O)c1cc(=O)[nH]o1 [Ibotenic acid] | > 100 µM | –
3 | NCC(=O)O [Glycine] | > 100 µM | –
4 | N[C@@H](Cc1ccc(O)cc1)C(=O)O [L-Tyrosine] | – | Ki ([1]; Ki values in excess of 100 μM (inhibition of proline uptake)): > 100 µM
5 | O=C(O)c1ccc[nH]1 [Pyrrole-2-carboxylic acid] | > 100 µM | –
6 | N[C@H](CC(=O)O)C(=O)O [D-Aspartic acid] | > 100 µM | transport induced by the transporter cDNA (in words) [2]: did not induce transport
7 | N[C@@H](CO)C(=O)O [L-Serine] | > 100 µM | –
8 | NCCCC[C@H](N)C(=O)O [L-Lysine] | > 100 µM | –
9 | NC(=O)CC[C@H](N)C(=O)O [L-Glutamine] | > 100 µM | –
10 | NCCCC(=O)O [GABA, gammaaminobutyric acid] | > 100 µM | –
11 | O=C(O)[C@@H]1CCCCN1 [L-Pipecolic acid] | – | Ki [1, 9]: 14 µM
12 | N[C@@H](CCC(=O)O)C(=O)O [L-Glutamic acid] | > 100 µM | inhibition of L-proline uptake (in words) [1]: inability; transport induced by the transporter cDNA (in words) [2]: did not induce transport
13 | N[C@]1(C(=O)O)CC[C@H](C(=O)O)C1 (relative stereo) [Trans-ACPD, trans1-aminocyclopentane-1,3-dicarboxylic acid] | > 100 µM | –
14 | N[C@@H](Cc1ccccc1)C(=O)O [L-Phenylalanine] | – | Ki [1, 9]: 48 µM
15 | O=C(O)[C@@H]1CCN1 [L-Azetidine-2-carboxylic acid] | > 100 µM | Ki [1, 7]: 115 µM
16 | O=C(O)[C@@H]1CCCN1 [L-proline] | – | Km ([3]; read-out: Km, high affinity component, high affinity): 6 to 12 µM; Km ([3]; read-out: Km, low affinity component, low affinity): > 190 µM; endogenous L-proline transport as percent of pPROT-induced transport [4]: less than 10%; Km ([4]; read-out: Km of endogenous L-proline transport, plasmid vector-transfected HeLa cells): > 200 µM; specific L-proline uptake upon isotonic substitution of NaCl with choline chloride ([5]; Na+ dependence, choline chloride): abolished; Km ([5]; read-out: apparent Michaelis constant (Km), 20 min incubation, 50 nM L-[3H]proline plus unlabeled L-proline, HeLa cells transfected with pPROT): ~9.7 µM
17 | O=C(O)[C@H]1CCCN1 [D-Proline] | > 100 µM | Ki ([1]; Ki (inhibition of L-[3H]proline transport)): > 100 µM
18 | CC(C)C[C@H](N)C(=O)O [L-Leucine] | > 100 µM | –
19 | CCCC[C@H](N)C(=O)O [L-Norleucine] | – | Ki [1, 9]: 37 µM
20 | N[C@@H](CC(=O)O)C(=O)O [L-Aspartic acid] | > 100 µM | inhibition of L-proline uptake (in words) [1]: inability
21 | N=C(N)NCCC[C@H](N)C(=O)O [L-Arginine] | > 100 µM | –
22 | CCCC[C@@H](N)C(=O)O [D-Norleucine] | > 100 µM | –
23 | C=C(C)[C@H]1CN[C@H](C(=O)O)[C@H]1CC(=O)O [Kainic acid] | > 100 µM | –
24 | C[C@H](N)C(=O)O [L-Alanine] | > 100 µM | –

Row | Molecule | Ki [1, 8] | also measured
25 | NC(=O)[C@@H]1CCCN1 [L-Prolinamide] | > 100 µM | –
26 | NC1(C(=O)O)CC1 [1-Amino-1-cyclopropane carboxylic acid] | > 100 µM | –
27 | O=C1CC[C@@H](C(=O)O)N1 [L-Pyroglutamic acid] | > 100 µM | –
28 | COC(=O)[C@@H]1CCCN1 [L-Proline methyl ester] | > 100 µM | –
29 | O=C(O)[C@H]1CN[C@H](C(=O)O)C1 [L-Trans-2,4-PDC, trans-L-pyrrolidone-2,4-dicarboxylate] | > 100 µM | inhibition of L-proline uptake (in words) [1]: none of the excitatory amino acid analogs examined, including the specific L-glutamate uptake blocker, trans-L-pyrrolidone-2, 4-dicarboxylate (L-trans-2,4-PDC) (Bridges et al., 1991), significantly inhibited L-proline uptake
30 | CN[C@H](CC(=O)O)C(=O)O [N-methyl-D-aspartate] | > 100 µM | –
31 | N[C@@H](CS)C(=O)O [L-Cysteine] | – | Ki [1, 9]: 91 µM
32 | C[C@@H](O)[C@H](N)C(=O)O [L-Threonine] | > 100 µM | –
33 | N[C@@H](Cn1oc(=O)[nH]c1=O)C(=O)O [Quisqualic acid] | > 100 µM | –
34 | N[C@@H](Cc1c[nH]c2ccccc12)C(=O)O [L-Tryptophan] | > 100 µM | –
35 | CC[C@H](C)[C@H](N)C(=O)O [L-Isoleucine] | > 100 µM | –
36 | NC1CCN(O)C1=O (stereo not drawn) [HA-966, 3-Amino-1-hydroxy-2-pyrrolidone] | > 100 µM | –
37 | O=C(O)C1C=CCN1 (stereo not drawn) [3,4-Dehydroproline] | – | Ki [1, 9]: 31 µM
38 | NC(=O)C[C@H](N)C(=O)O [L-Asparagine] | > 100 µM | –
39 | CSCC[C@H](N)C(=O)O [L-Methionine] | > 100 µM | –
40 | NCC(=O)N1CCC[C@H]1C(=O)O [Glycylproline] (H-Gly-Pro-OH) | > 100 µM | –
41 | O=C(O)[C@@H]1C[C@@H](O)CN1 [Hydroxyproline] | > 100 µM | –
42 | CC(C)[C@H](N)C(=O)O [L-Valine] | > 100 µM | –
43 | N[C@@H](Cc1c[nH]cn1)C(=O)O [L-Histidine] | – | Ki [1, 9]: 83 µM
44 | O=C(O)[C@H]1CCCN[C@H]1C(=O)O (racemic) [(+/-)cis-2,3-piperidine dicarboxylic acid] | > 100 µM | –
45 | O=C(O)CNC(=O)[C@@H]1CCCN1 [Prolylglycine] (H-Pro-Gly-OH) | > 100 µM | –
46 | CC(=O)N1CCC[C@H]1C(=O)O [N-acetylproline] | > 100 µM | –
47 | N[C@@H](CSSC[C@H](N)C(=O)O)C(=O)O [L-Cystine] | > 100 µM | –
48 | B1 | – | Km [6]: 9.7 µM
